Where “and” joins values, the source holds several entries; their conditions need not be identical. Identical values can stand only once.

The IC50 is the concentration needed to halve the response being measured.

One test addresses T1, myeloperoxidase (MPO) (Homo sapiens, UniProt P05164).
T1 sequence (P05164 49-745): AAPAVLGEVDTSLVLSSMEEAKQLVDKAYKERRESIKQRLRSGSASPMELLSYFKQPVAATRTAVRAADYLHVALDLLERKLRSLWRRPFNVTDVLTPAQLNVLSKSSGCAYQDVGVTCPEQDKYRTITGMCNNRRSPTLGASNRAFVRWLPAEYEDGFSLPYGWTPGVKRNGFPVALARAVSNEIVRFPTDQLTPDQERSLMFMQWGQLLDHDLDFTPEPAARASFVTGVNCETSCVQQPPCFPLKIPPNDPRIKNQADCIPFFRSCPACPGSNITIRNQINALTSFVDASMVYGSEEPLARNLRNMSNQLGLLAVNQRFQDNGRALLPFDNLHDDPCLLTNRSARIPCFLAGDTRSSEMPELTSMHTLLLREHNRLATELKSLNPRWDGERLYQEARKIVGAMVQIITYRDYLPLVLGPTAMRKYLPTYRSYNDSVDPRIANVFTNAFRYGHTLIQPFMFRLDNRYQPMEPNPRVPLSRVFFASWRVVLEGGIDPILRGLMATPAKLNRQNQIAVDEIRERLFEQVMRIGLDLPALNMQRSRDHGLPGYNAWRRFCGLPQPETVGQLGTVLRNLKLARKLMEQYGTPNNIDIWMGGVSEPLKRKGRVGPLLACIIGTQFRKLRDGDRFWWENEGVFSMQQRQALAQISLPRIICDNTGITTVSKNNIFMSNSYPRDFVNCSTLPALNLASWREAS
Nature of the test: MPO peroxidation assay (Amplex Red assay). The following applies: MPO peroxidation (Amplex Red), ranges given; read-out: MPO peroxidation assay IC50 values (binned). The format is biochemical. How it is done:
MPO Peroxidation Assay (Amplex Red Assay)
MPO peroxidation activity was measured in 100 mM KPi (pH 7.4) by utilizing the non-fluorescent reagent Amplex Red (Invitrogen Cat. #A12222) which can be oxidized to the highly fluorescent resorufin. Amplex Red is oxidized by the peroxidase action of MPO to resorufin. […] Enzyme and compound were preincubated for ten minutes at room temperature.
After the ten minute preincubation, 25 μL of an Amplex Red mixture containing 200 μM Amplex Red and 10 mM H2O2 was added to the plate.
IC50 values were calculated by determining the slope of the linear portion of the kinetic trace (180-540 secs), and using that calculated slope to determine % inhibition occurring at each concentration of inhibitor using the following equation:
[formula] where A=minimal Y value (activity level of inhibited sample), B=maximal Y value (activity level of uninhibited sample), C=Log IC50, D=Hill Slope, x=concentration of inhibitor. MPO Chlorination Assay (APF Assay)
As for `Cc1nn(C2CCC(C)C2)nc1COc1cc(N)nc2[nH]nnc12` (mixture of isomers) [Example 72, 7-((5-Methyl-2-(3-methylcyclopentyl)-2H-1,2,3-triazol-4-yl)methoxy)-3H-[1,2,3]triazolo[4,5-b]pyridin-5-amine], the IC50 is not above 0.06 µM.
Still for that read-out and setting: then `Nc1cc(OCc2ccc3c(c2)OCO3)c2nn[nH]c2n1` [Example 1, 7-(Benzo[d][1,3]dioxol-5-ylmethoxy)-3H-[1,2,3]triazolo[4,5-b]pyridin-5-amine], with not above 0.06 µM; and `Nc1cc(OCc2cccc3c2OCCO3)c2nn[nH]c2n1` [Example 2, 7-((2,3-Dihydrobenzo[b][1,4]dioxin-5-yl)methoxy)-3H-[1,2,3]triazolo[4,5-b]pyridin-5-amine], with not above 0.06 µM.
The same measure, in the same setting: then `Nc1cc(OCc2cccc3c2OC(F)(F)O3)c2nn[nH]c2n1` [Example 3, 7-((2,2-Difluorobenzo[d][1,3]dioxol-4-yl)methoxy)-3H-[1,2,3]triazolo[4,5-b]pyridin-5-amine], with not above 0.06 µM; and `Nc1cc(OCc2cccc(-c3cccc(F)c3)n2)c2nn[nH]c2n1` [Example 5, 7-((6-(3-Fluorophenyl)pyridin-2-yl)methoxy)-3H-[1,2,3]triazolo[4,5-b]pyridin-5-amine], with 0.06 to 0.15 µM.
As to `Nc1cc(OCc2cccc3cccnc23)c2nn[nH]c2n1` [Example 7, 7-(Quinolin-8-ylmethoxy)-3H-[1,2,3]triazolo[4,5-b]pyridin-5-amine], the IC50 is not above 0.06 µM.
The same measure, in the same setting: then `Cn1ncc2cccc(COc3cc(N)nc4[nH]nnc34)c21` [Example 8, 7-((1-Methyl-1H-indazol-7-yl)methoxy)-3H-[1,2,3]triazolo[4,5-b]pyridin-5-amine], with not above 0.06 µM; and `Cn1ncc2ccc(COc3cc(N)nc4[nH]nnc34)cc21` [Example 9, 7-((1-Methyl-1H-indazol-6-yl)methoxy)-3H-[1,2,3]triazolo[4,5-b]pyridin-5-amine], with not above 0.06 µM.
Same read-out and setting: the figure for `Cc1nn(-c2ccc(F)cc2)nc1COc1cc(N)nc2[nH]nnc12` [Example 10, 7-((2-(4-Fluorophenyl)-5-methyl-2H-1,2,3-triazol-4-yl)methoxy)-3H-[1,2,3]triazolo[4,5-b]pyridin-5-amine] is not above 0.06 µM; for `Nc1cc(OCc2cccc(C(F)(F)F)n2)c2nn[nH]c2n1` [Example 16, 7-((6-(Trifluoromethyl)pyridin-2-yl)methoxy)-3H-[1,2,3]triazolo[4,5-b]pyridin-5-amine] it is not above 0.06 µM.
Same read-out and setting: then `Cn1nc(COc2cc(N)nc3[nH]nnc23)cc1-c1ccccc1` [Example 17, 7-((1-Methyl-5-phenyl-1H-pyrazol-3-yl)methoxy)-3H-[1,2,3]triazolo[4,5-b]pyridin-5-amine], with not above 0.06 µM; and `Cn1nc(-c2ccccc2)cc1COc1cc(N)nc2[nH]nnc12` [Example 18, 7-((1-Methyl-3-phenyl-1H-pyrazol-5-yl)methoxy)-3H-[1,2,3]triazolo[4,5-b]pyridin-5-amine], with not above 0.06 µM.
Turning to `CCn1nc(C(F)(F)F)cc1COc1cc(N)nc2[nH]nnc12` [Example 19, 7-((1-Ethyl-3-(trifluoromethyl)-1H-pyrazol-5-yl)methoxy)-3H-[1,2,3]triazolo[4,5-b]pyridin-5-amine], the IC50 was not above 0.06 µM.
On the same count and under the same terms, then `Cn1nc(C2CC2)cc1COc1cc(N)nc2[nH]nnc12` [Example 20, 7-((3-Cyclopropyl-1-methyl-1H-pyrazol-5-yl)methoxy)-3H-[1,2,3]triazolo [4,5-b]pyridin-5-amine], with not above 0.06 µM.
Turning to `Nc1cc(OCc2nc(-c3ccccc3)no2)c2nn[nH]c2n1` [Example 24, 7-((3-Phenyl-1,2,4-oxadiazol-5-yl)methoxy)-3H-[1,2,3]triazolo[4,5-b]pyridin-5-amine], the IC50 lay within 0.06 to 0.15 µM.
Consider `Nc1cc(OCc2cnc(-c3ccccc3)s2)c2nn[nH]c2n1` [Example 26, 7-((2-Phenylthiazol-5-yl)methoxy)-3H-[1,2,3]triazolo[4,5-b]pyridin-5-amine], for which the IC50 lay within 0.15 to 1 µM.
Still for that read-out and setting: then `Cc1oc(-c2cc(F)cc(F)c2)nc1COc1cc(N)nc2[nH]nnc12` [Example 27, 7-((2-(3,5-Difluorophenyl)-5-methyloxazol-4-yl)methoxy)-3H-[1,2,3]triazolo[4,5-b]pyridin-5-amine], with 0.15 to 1 µM; and `Nc1cc(OCc2nnc3cccc(Cl)n23)c2nn[nH]c2n1` [Example 29, 7-((5-Chloro-[1,2,4]triazolo[4,3-a]pyridin-3-yl)methoxy)-3H-[1,2,3]triazolo [4,5-b]pyridin-5-amine], with 0.06 to 0.15 µM; and `Nc1cc(OCc2cnn(-c3ccccn3)c2)c2nn[nH]c2n1` [Example 30, 7-((1-(Pyridin-2-yl)-1H-pyrazol-4-yl)methoxy)-3H-[1,2,3]triazolo[4,5-b]pyridin-5-amine], with 0.06 to 0.15 µM.
Same read-out and setting: then `Cc1nc(-c2ccc(Cl)cc2)ncc1COc1cc(N)nc2[nH]nnc12` [Example 31, 7-((2-(4-Chlorophenyl)-4-methylpyrimidin-5-yl)methoxy)-3H-[1,2,3]triazolo[4,5-b]pyridin-5-amine], with 0.15 to 1 µM; and `Cn1cnc2cccc(COc3cc(N)nc4[nH]nnc34)c21` [Example 36, 7-((1-Methyl-1H-benzo[d]imidazol-7-yl)methoxy)-3H-[1,2,3]triazolo[4,5-b]pyridin-5-amine], with 0.15 to 1 µM; and `Nc1cc(OCc2cccc3c2ncn3Cc2ccccc2)c2nn[nH]c2n1` [Example 37, 7-((1-Benzyl-1H-benzo[d]imidazol-4-yl)methoxy)-3H-[1,2,3]triazolo[4,5-b]pyridin-5-amine], with 0.15 to 1 µM.
Still for that read-out and setting: the figure for `Nc1cc(OCc2cccc3c2nnn3Cc2ccccc2)c2nn[nH]c2n1` [Example 38, 7-((1-Benzyl-1H-benzo[d][1,2,3]triazol-4-yl)methoxy)-3H-[1,2,3]triazolo [4,5-b]pyridin-5-amine] is 0.06 to 0.15 µM and 0.15 to 1 µM; for `Cc1oc(-c2ccc(Cl)cc2Cl)nc1COc1cc(N)nc2[nH]nnc12` [Example 39, 7-((2-(2,4-Dichlorophenyl)-5-methyloxazol-4-yl)methoxy)-3H-[1,2,3]triazolo[4,5-b]pyridin-5-amine] it is not above 0.06 µM.
Turning to `Nc1cc(OCc2cn3nc(Cl)ccc3n2)c2nn[nH]c2n1` [Example 40, 7-((6-Chloroimidazo[1,2-b]pyridazin-2-yl)methoxy)-3H-[1,2,3]triazolo[4,5-b]pyridin-5-amine], the IC50 is 0.15 to 1 µM.
On to `Nc1cc(OCc2csc(-c3ccccc3)n2)c2nn[nH]c2n1` [Example 42, 7-((2-Phenylthiazol-4-yl)methoxy)-3H-[1,2,3]triazolo[4,5-b]pyridin-5-amine], for which the IC50 was 0.06 to 0.15 µM.
Consider `N#Cc1ccccc1-c1cc(COc2cc(N)nc3[nH]nnc23)on1` [Example 45, 2-(5-((5-Amino-3H-[1,2,3]triazolo[4,5-b]pyridin-7-yloxy)methyl)isoxazol-3-yl)benzonitrile], for which the IC50 was not above 0.06 µM.
Still for that read-out and setting: the figure for `Cc1nc(-c2ccc(Cl)cc2)sc1COc1cc(N)nc2[nH]nnc12` [Example 49, 7-((2-(4-Chlorophenyl)-4-methylthiazol-5-yl)methoxy)-3H-[1,2,3]triazolo [4,5-b]pyridin-5-amine] is not above 0.06 µM; for `Nc1cc(OCc2nn(-c3cccc(Cl)c3)c3c2CCNC3=O)c2nn[nH]c2n1` [Example 51, 3-(((5-Amino-3H-[1,2,3]triazolo[4,5-b]pyridin-7-yl)oxy)methyl)-1-(3-chlorophenyl)-5,6-dihydro-1H-pyrazolo[3,4-c]pyridin-7(4H)-one] it is 0.06 to 0.15 µM; for `Cc1nc(-c2ccccc2)oc1COc1cc(N)nc2[nH]nnc12` [Example 54, 7-((4-Methyl-2-phenyloxazol-5-yl)methoxy)-3H-[1,2,3]triazolo[4,5-b]pyridin-5-amine] it is 0.06 to 0.15 µM.

The test is the same for the next values; noted with them: MPO peroxidation assay IC50 values (binned), MPO peroxidation (Amplex Red), ranges given.
Turning to `Nc1cc(OCc2cn(-c3ccccc3)nn2)c2nn[nH]c2n1` [Example 4, 7-((1-Phenyl-1H-1,2,3-triazol-4-yl)methoxy)-3H-[1,2,3]triazolo[4,5-b]pyridin-5-amine], the IC50 was in the range of 0.06 to 0.15 µM.
The same measure, in the same setting: then `Cc1nn(-c2ccccc2)nc1COc1cc(N)nc2[nH]nnc12` [Example 21, 7-((5-Methyl-2-phenyl-2H-1,2,3-triazol-4-yl)methoxy)-3H-[1,2,3]triazolo [4,5-b]pyridin-5-amine], with not above 0.06 µM; and `Nc1cc(OCc2ncc(-c3ccccc3)o2)c2nn[nH]c2n1` [Example 25, 7-((5-Phenyloxazol-2-yl)methoxy)-3H-[1,2,3]triazolo[4,5-b]pyridin-5-amine], with 0.06 to 0.15 µM.
